This passage reports AC50 and EC50 results from ChEMBL document CHEMBL1201862, “PubChem BioAssay data set” (2004).

“And” between values parts separate entries of the source, which are not always exact repeats. Equal values may be shown once. The source made the active and inactive calls.

Among the targets are Cytochrome P450 3A4 (Homo sapiens, UniProt P08684); Cytochrome P450 2D6 (Homo sapiens, UniProt P10635); Cytochrome P450 2C9 (Homo sapiens, UniProt P11712).
In the next assay the target is Cytochrome P450 2C19 (Homo sapiens, UniProt P33261). Briefly: Cytochrome panel assay with activity outcomes. Panel member name: p450-cyp2c19 Compounds with AC50 equal or less than 10 uM are considered active. Format: functional. Particulars: read-out: AC50.
For assay [1], the target named is T1, Replicative DNA helicase DnaB (Mycobacterium tuberculosis, UniProt P9WMR3).
T1 sequence (P9WMR3 whole entry): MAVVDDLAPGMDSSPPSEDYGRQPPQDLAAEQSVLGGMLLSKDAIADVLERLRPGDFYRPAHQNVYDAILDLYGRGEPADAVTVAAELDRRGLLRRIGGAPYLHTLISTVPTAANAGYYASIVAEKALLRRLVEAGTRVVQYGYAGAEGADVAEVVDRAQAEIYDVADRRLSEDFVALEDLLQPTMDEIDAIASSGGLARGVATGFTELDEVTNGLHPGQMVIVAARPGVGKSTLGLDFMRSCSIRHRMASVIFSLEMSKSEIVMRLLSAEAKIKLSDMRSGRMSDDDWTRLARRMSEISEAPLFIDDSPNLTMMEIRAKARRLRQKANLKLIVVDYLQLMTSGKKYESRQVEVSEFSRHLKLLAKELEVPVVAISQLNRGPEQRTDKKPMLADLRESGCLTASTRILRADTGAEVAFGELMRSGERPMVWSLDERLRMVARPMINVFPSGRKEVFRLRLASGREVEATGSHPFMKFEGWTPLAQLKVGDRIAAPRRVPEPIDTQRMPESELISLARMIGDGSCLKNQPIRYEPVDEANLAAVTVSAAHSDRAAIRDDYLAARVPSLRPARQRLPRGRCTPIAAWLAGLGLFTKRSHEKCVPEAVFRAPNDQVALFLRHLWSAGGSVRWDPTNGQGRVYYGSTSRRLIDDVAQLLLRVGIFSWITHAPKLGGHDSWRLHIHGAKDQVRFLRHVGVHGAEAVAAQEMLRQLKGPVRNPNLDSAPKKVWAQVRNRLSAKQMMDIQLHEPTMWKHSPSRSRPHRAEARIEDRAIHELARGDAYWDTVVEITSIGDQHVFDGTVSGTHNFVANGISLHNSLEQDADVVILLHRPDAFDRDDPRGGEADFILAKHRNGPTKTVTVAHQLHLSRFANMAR
As to the kind of experiment: DnaB intein splicing inhibitors, dose response, biochemical, cell-free fluorescence (AID 449749). Format: functional.

The target in another assay is T2, Protein RecA (Mycobacterium tuberculosis, UniProt P9WHJ3).
T2 sequence (P9WHJ3 whole entry): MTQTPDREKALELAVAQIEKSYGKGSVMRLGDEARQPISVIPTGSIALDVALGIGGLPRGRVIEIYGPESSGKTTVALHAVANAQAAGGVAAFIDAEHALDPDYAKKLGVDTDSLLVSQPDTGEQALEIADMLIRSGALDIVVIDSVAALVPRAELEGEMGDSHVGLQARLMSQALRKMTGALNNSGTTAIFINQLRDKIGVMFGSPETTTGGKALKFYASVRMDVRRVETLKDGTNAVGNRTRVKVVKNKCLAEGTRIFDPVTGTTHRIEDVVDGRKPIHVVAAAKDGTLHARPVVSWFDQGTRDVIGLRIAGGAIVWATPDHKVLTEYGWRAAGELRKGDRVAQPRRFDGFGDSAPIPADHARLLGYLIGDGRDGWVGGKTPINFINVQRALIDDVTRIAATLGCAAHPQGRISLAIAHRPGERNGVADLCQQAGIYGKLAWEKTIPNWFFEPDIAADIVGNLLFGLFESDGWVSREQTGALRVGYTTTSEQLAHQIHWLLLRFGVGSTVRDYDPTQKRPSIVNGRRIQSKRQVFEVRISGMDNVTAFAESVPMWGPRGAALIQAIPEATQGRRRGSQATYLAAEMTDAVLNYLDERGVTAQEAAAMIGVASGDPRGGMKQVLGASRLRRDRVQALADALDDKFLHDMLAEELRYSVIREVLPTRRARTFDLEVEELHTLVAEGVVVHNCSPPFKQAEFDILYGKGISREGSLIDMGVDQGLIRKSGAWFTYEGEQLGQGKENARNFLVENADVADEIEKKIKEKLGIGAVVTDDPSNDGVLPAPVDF
As to the kind of experiment: Fluorescence Cell-Free Homogeneous Dose Retest to Identify Inhibitors of RecA-Intein Splicing Activity. [Related pubchem assays (depositor defined):AID2097, AID2223, AID489010, AID492950]. The class given is functional.

Assay [2] has as its target T3, Heat shock factor protein 1 (Mus musculus, UniProt P38532).
T3 sequence (P38532 whole entry): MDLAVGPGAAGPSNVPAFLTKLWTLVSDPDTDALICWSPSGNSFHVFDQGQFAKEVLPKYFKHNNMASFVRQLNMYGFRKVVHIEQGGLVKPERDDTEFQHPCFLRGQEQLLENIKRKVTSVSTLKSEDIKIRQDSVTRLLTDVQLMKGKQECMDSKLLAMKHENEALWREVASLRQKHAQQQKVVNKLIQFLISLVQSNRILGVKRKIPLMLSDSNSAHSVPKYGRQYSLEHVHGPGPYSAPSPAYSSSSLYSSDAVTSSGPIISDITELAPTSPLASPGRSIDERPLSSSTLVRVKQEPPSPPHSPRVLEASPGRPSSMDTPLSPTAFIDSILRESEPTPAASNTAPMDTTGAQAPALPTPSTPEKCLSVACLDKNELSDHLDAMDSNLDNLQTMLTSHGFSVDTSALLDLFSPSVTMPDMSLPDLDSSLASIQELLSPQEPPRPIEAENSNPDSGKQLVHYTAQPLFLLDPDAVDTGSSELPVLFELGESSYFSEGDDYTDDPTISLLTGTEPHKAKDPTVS
As to the kind of experiment: decrease of HSF1-responsive luciferase luminescence – cell-based, NIH3T3, dose retest, confirmation (AID 2382).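 Further: NIH3T3 fibroblasts with HSF1-driven luciferase reporter stressed by proteasome inhibitor MG132; luminescence from HSF1-driven luciferase expression after 8 hours of MG132 stress.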 The class given is functional.

Assay [3] can be described thus: fluconazole-exposed Candida albicans growth modulators – fluorescence, retest, confirmation (AID 2467). Format: functional, cell-based.

Chain of Cytochrome P450 2C19 (P33261 whole entry): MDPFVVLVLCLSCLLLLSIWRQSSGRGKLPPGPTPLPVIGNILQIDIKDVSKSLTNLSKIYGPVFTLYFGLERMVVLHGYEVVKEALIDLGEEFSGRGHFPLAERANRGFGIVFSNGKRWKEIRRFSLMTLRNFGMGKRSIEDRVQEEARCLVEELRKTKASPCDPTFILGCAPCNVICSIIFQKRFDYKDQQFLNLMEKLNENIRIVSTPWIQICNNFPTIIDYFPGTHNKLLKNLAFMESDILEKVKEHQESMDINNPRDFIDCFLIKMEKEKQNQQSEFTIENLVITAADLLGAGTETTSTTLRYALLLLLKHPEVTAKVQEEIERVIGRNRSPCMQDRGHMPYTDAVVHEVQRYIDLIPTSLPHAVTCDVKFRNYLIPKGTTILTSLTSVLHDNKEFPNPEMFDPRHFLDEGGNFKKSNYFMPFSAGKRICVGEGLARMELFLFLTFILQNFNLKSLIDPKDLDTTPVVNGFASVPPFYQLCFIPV
Chain of Cytochrome P450 3A4 (P08684 whole entry): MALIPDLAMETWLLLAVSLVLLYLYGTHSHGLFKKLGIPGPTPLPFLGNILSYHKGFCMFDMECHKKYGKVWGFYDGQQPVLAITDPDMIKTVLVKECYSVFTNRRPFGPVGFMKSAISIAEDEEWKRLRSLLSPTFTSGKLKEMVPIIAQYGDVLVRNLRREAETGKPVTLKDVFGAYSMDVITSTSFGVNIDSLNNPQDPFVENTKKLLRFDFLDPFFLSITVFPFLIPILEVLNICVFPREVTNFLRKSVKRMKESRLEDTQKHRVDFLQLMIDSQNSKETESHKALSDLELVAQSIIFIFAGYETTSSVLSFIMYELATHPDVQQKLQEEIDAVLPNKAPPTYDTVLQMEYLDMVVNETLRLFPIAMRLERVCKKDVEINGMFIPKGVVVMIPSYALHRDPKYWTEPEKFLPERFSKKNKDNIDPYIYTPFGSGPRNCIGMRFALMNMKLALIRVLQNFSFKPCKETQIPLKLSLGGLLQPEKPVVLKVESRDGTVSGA
Chain of Cytochrome P450 2C9 (P11712 whole entry): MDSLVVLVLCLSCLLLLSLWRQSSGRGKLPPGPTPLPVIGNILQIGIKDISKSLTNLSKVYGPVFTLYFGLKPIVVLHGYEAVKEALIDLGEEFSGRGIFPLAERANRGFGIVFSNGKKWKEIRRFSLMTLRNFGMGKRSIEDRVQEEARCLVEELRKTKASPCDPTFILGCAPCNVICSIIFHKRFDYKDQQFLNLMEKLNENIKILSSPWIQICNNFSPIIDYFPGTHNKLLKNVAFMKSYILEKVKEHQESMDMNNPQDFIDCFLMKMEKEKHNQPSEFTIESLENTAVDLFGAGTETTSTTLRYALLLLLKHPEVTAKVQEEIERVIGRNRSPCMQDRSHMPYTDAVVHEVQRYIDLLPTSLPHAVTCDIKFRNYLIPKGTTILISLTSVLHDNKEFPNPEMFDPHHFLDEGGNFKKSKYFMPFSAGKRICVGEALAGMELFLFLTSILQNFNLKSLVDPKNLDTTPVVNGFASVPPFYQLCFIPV
Chain of Cytochrome P450 2D6 (P10635 whole entry): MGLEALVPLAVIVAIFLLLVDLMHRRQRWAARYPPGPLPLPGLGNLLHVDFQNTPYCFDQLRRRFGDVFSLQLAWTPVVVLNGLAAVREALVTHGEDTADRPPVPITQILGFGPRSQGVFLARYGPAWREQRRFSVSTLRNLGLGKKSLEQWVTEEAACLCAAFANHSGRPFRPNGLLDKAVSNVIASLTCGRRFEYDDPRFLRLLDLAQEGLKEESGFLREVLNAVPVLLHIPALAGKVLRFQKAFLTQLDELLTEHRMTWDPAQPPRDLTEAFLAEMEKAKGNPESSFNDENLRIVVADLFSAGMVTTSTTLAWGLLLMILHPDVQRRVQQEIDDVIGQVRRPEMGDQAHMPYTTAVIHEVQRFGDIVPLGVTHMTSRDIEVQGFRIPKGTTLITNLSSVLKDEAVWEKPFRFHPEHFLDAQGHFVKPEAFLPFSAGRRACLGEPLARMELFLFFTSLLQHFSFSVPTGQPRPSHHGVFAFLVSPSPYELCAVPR

As to `O=C(c1c(O)nc2cc(Cl)ccc2c1O)C1CC1`, at Cytochrome P450 3A4, the AC50 (in general, the concentration at which the activity in the assay is half-maximal) was 0.00316 µM (inconclusive).
Regarding `CN(Cc1ccco1)C(=O)C1CCC(=O)N1Cc1ccc(F)cc1` (stereo unspecified), the AC50 on Cytochrome P450 2D6 was 25.1 µM (inconclusive).
On to `N#CCCSC(=S)[C@H]1CCCC1=N`, for which the AC50 on Cytochrome P450 2C19 is 5.01 µM (inconclusive); on Cytochrome P450 3A4, 2.51 µM (inconclusive).
For the molecule `FC(F)(F)c1ccccc1-c1nc(NC2CC2)c2ccccc2n1`, the AC50 was 10 µM (inconclusive) at Cytochrome P450 2C19 and 31.6 µM (inconclusive) at Cytochrome P450 2D6.
In the case of `CN1CCN(c2ncc3nc(-c4cn(C)c5ccccc45)c(=O)n(CCC#N)c3n2)CC1`, the AC50 on Cytochrome P450 2C19 is 39.8 µM (inconclusive); on Cytochrome P450 2D6 it was 39.8 µM (inconclusive); at Cytochrome P450 2C9 it was 39.8 µM (inconclusive); at Cytochrome P450 3A4 it was 25.1 µM (inconclusive).
In the case of `COc1ccc(-c2cc(C(F)(F)F)n3nc(C(=O)NCc4ccco4)c(Cl)c3n2)cc1`, the figures for the AC50 on Cytochrome P450 2C19 and on Cytochrome P450 3A4 were 1.78 µM (inconclusive) and 3.16 µM (inconclusive), respectively.
With `CCOc1cc(/C=C(\C#N)C(=O)Nc2cccc(C(=O)O)c2)cc(Br)c1OC(=O)c1ccc(OC)cc1`, in assay [1], the AC50 is 4.04 µM (active). Besides, the EC50 (in general, the midpoint of the concentration-response curve) on Protein RecA is 13.2 µM (active).
For the molecule `COC(=O)[C@H]1C[C@@H]1[C@H](NC(=O)c1cnccn1)c1ccccc1`, the AC50 on Cytochrome P450 3A4 was 7.94 µM (inconclusive).
With `CCOc1cc(/C=C2\C(=N)N3N=C(S(=O)(=O)CC)SC3=NC2=O)ccc1OC(=O)c1ccco1`, the AC50 in assay [1] was > 380 µM (inactive). In addition, at Protein RecA, the 50% effective concentration (EC50) is 22.1 µM (active).
As for `CC[C@@]1(c2ccc(N)cc2)CCC(=O)NC1=O`, on Cytochrome P450 3A4, the AC50 was 12.6 µM (inconclusive) and 10 µM (inconclusive).
Regarding `O=C1c2ccccc2CC[C@H]1CNCCc1ccc(O)cc1`, the AC50 on Cytochrome P450 2C19 was 31.6 µM (inconclusive); at Cytochrome P450 2C9 it was 39.8 µM (inconclusive); on Cytochrome P450 3A4, 7.94 µM (inconclusive).
Consider `CCOc1ccc(C(=O)C2=C(O)C(=O)N(CCCn3ccnc3)C2c2cccs2)cc1Cl` (stereo unspecified), for which the AC50 at Cytochrome P450 2D6 was 14.1 µM (inconclusive). The EC50 in assay [2] is > 195 µM (not active).
Take `c1nc(NC2CCNCC2)c2cc(-c3ccc4c(c3)OCO4)ccc2n1`: the AC50 at Cytochrome P450 2D6 was 20 µM (inconclusive).
For the molecule `Cc1ccc(S(=O)(=O)O[C@H]2CN3CCC2CC3)cc1`, the half-maximal activity concentration (AC50) on Cytochrome P450 2D6 is 3.98 µM (inconclusive).
As to `CCOC(=O)C1CCCN(C(=O)CCn2nc(-c3ccccc3)ccc2=O)C1` (stereo unspecified), the AC50 on Cytochrome P450 2C9 is 31.6 µM (inconclusive); at Cytochrome P450 3A4 it was 17.8 µM (inconclusive).
For `Cc1cc(OCC(=O)OC(C)C)c2c3c(c(=O)oc2c1)CCCC3`, the AC50 on Cytochrome P450 3A4 was 28.2 µM (inconclusive).
In the case of `COc1cccc(Nc2ncc3nc(-c4ccc(Cl)cc4)c(=O)n(C[C@H]4CCCO4)c3n2)c1`, the AC50 on Cytochrome P450 3A4 is 15.8 µM (inconclusive).
`CNC(=O)/C=C1\NC(C)(C)Cc2c1ccc1ccccc21`: the results for the AC50 on Cytochrome P450 2C9 and on Cytochrome P450 3A4 were 5.01 µM (inconclusive) and 15.8 µM (inconclusive), respectively.
In the case of `O=[N+]([O-])c1ccc2c(/N=N\c3ccc4ccccc4c3O)c(O)cc(S(=O)(=O)O)c2c1`, the AC50 at Cytochrome P450 2C19 was 2.51 µM (inconclusive); on Cytochrome P450 2D6, 0.631 µM (inconclusive); on Cytochrome P450 3A4, 3.98 µM (inconclusive).
On to `Cc1ccc(S(=O)(=O)n2c3ccccc3c3nnc(C(=O)c4ccccc4)nc32)cc1`, for which the concentration at half-maximal activity (AC50) on Cytochrome P450 2C19 is 0.0126 µM (inconclusive); on Cytochrome P450 2C9, 3.16 µM (inconclusive).
On to `Cc1[nH]c2ccccc2c1C(c1ccccn1)N1CCC(C)CC1` (stereo unspecified), for which, at Cytochrome P450 2D6, the AC50 was 25.1 µM (inconclusive).
Turning to `Nc1ccc(SCCN2C(=O)c3ccccc3C2=O)cc1`, the EC50 in assay [3] is listed as > 38 µM (not active).
Turning to `Cc1cc(C)c(S(C)(=O)=O)c(Oc2cccc(C(F)(F)F)c2)n1`, the concentration at half-maximal activity (AC50) in assay [1] was 213 µM (active). In addition, the EC50 at Protein RecA is > 380 µM (inactive).
In the same order, the values of `COc1cccc(C(=O)O/N=C(\N)c2ccc([N+](=O)[O-])cc2)c1OC` are > 380 µM (inactive) and > 380 µM (inactive).
Regarding `COCCn1c(C(=O)N(C)C)cc2c1C[C@H]1CN(C(=O)c3ccccc3)[C@@](Cc3ccc(F)cc3)(C(=O)OC)[C@@H]21`, the figures for the concentration at half-maximal activity (AC50) on Cytochrome P450 2C19 and at Cytochrome P450 2C9 were 39.8 µM (inconclusive) and 25.1 µM (inconclusive), respectively.
`COc1ncc2nc(-c3cc(F)cc(F)c3)c(=O)n(CCC#N)c2n1`: the AC50 at Cytochrome P450 3A4 was 20 µM (inconclusive).
As for `Cn1ncc([N+](=O)[O-])c1C(=O)Nc1ccc2c(c1)OCCO2`, the figures for the AC50 at Cytochrome P450 2C19, on Cytochrome P450 2D6 and at Cytochrome P450 2C9 were 0.0355 µM (inconclusive), 12.6 µM (inconclusive) and 11.2 µM (inconclusive), respectively.
On to `C/C(CC(=O)Nc1cc(C)ccn1)=N\NC(=O)C(=O)NC(C)C`, for which, in assay [1], the AC50 was 19.6 µM (active). Besides, the EC50 at Protein RecA was 4.48 µM (active).
For the molecule `C/C(=C\C(=O)c1ccc(Cl)cc1)NCc1ccc2c(c1)OCO2`, the AC50 was 5.01 µM (inconclusive) at Cytochrome P450 2D6 and 0.794 µM (inconclusive) on Cytochrome P450 3A4.
With `COc1ccccc1CNc1ncnc2ccc(-c3ccc(C(=O)N(C)C)cc3)cc12`, the figures for the AC50 at Cytochrome P450 2C19 and on Cytochrome P450 2D6 were 20 µM (inconclusive) and 39.8 µM (inconclusive), respectively.
In the same order, the values of `CCCCCCCCC(=O)NCc1ccc(O)c(OC)c1` [NONIVAMIDE] are 7.94 µM (inconclusive) and 25.1 µM (inconclusive).
